What was measured:
Assay in all cases: Effect on weeds by the post-emergence technique
Type in all cases: in vivo
Details in all cases: rated visually after approx. 3-4 weeks
Avena fatua (wild oats) = test system: Avena fatua (wild oats)
Experimental: (§1) The damage caused to weed plants or the toleration by crop plants was rated by means of a code in which the activity is expressed by valuation numbers from 0 to 5. These have the following meanings:
(§2) Seeds or pieces of rhizome of monocotyledonous and dicotyledonous weeds were laid out in sandy loam soil in plastic pots (.phi.=9 l cm), covered with soil and cultivated in a greenhouse under good conditions for growth. The test plants were treated in the three leaf stage three weeks after sowing.
(§3) The compounds according to the invention, formulated as wettable powders, as emulsion concentrates or as aqueous solutions, were sprayed onto the green parts of the plants at various dosages and at a water application rate equivalent to 600 l/hectare, and the effect of the preparations was rated visually in comparison with untreated controls after the test plants had stood for approx. 3-4 weeks in a greenhouse under optimum conditions for growth (temperature 23 plus/minus 1° C.; relative humidity 60-80%). The agents according to the invention display a good herbicidal activity in the post-emergence technique against a broad spectrum of grass-like weeds and weeds of economic importance.

[1] = test system: Chrysanthemum segetum corn marigold
Experimental: as §1, §2, §3

[2] = test system: Stellaria media (starwort)
Experimental: as §1, §2, §3

[3] = test system: Sinapis alba (white mustard)
Experimental: as §1, §2, §3

[4] = test system: Setaria lutescens foxtail
Experimental: as §1, §2, §3

[5] = test system: Echinochloa crusgalli barnyardgrass
Experimental: as §1, §2, §3

Structure (SMILES)	Herbicidal effect AVF (Avena fatua (wild oats); 0.6 kg of a.i./hectare)	Herbicidal effect AVF (Avena fatua (wild oats); 2.4 kg of a.i./hectare)	Herbicidal effect CRS ([1]; 0.6 kg of a.i./hectare)	Herbicidal effect CRS ([1]; 2.4 kg of a.i./hectare)	Herbicidal effect STM ([2]; 0.6 kg of a.i./hectare)	Herbicidal effect STM ([2]; 2.4 kg of a.i./hectare)	Herbicidal effect SIA ([3]; 0.6 kg of a.i./hectare)	Herbicidal effect SIA ([3]; 2.4 kg of a.i./hectare)	Herbicidal effect SAL ([4]; 0.6 kg of a.i./hectare)	Herbicidal effect SAL ([4]; 2.4 kg of a.i./hectare)	Herbicidal effect ECG ([5]; 0.6 kg of a.i./hectare)	Herbicidal effect ECG ([5]; 2.4 kg of a.i./hectare)
CC(C)C(N)C(=O)NC(CCP(C)(=O)O)C(=O)O (racemic) [Example 1, N-Dl-valyl-DL-phosphinothricin]	4 (4=60-80% effect or damage)	5 (5=80-100% effect or damage)	5 (5=80-100% effect or damage)	5 (5=80-100% effect or damage)	4 (4=60-80% effect or damage)	5 (5=80-100% effect or damage)	5 (5=80-100% effect or damage)	5 (5=80-100% effect or damage)	4 (4=60-80% effect or damage)	5 (5=80-100% effect or damage)	5 (5=80-100% effect or damage)	5 (5=80-100% effect or damage)
CP(=O)(O)CCC(NC(=O)[C@@H](N)Cc1ccccc1)C(=O)O (mixture of isomers) [Example 2, N-L-phenylalanyl-DL-phosphinothricin]	5 (5=80-100% effect or damage)	5 (5=80-100% effect or damage)	5 (5=80-100% effect or damage)	5 (5=80-100% effect or damage)	4 (4=60-80% effect or damage)	5 (5=80-100% effect or damage)	5 (5=80-100% effect or damage)	5 (5=80-100% effect or damage)	5 (5=80-100% effect or damage)	5 (5=80-100% effect or damage)	5 (5=80-100% effect or damage)	5 (5=80-100% effect or damage)
CC(C)C[C@H](N)C(=O)NC(CCP(C)(=O)O)C(=O)O (some centres unmarked) [Example 24]	–	–	–	5 (5=80-100% effect or damage)	–	5 (5=80-100% effect or damage)	–	5 (5=80-100% effect or damage)	–	–	–	5 (5=80-100% effect or damage)
CP(=O)(O)CCC(NC(=O)C(N)c1ccccc1)C(=O)O (centres unmarked) [Example 34]	3 (3=40-60% effect or damage)	4 (4=60-80% effect or damage)	5 (5=80-100% effect or damage)	5 (5=80-100% effect or damage)	4 (4=60-80% effect or damage)	5 (5=80-100% effect or damage)	5 (5=80-100% effect or damage)	5 (5=80-100% effect or damage)	4 (4=60-80% effect or damage)	5 (5=80-100% effect or damage)	5 (5=80-100% effect or damage)	5 (5=80-100% effect or damage)
CP(=O)(O)CCC(NC(=O)[C@@H](N)CCCCN)C(=O)O (some centres unmarked) [Example 72]	–	–	–	5 (5=80-100% effect or damage)	–	5 (5=80-100% effect or damage)	–	5 (5=80-100% effect or damage)	–	–	–	5 (5=80-100% effect or damage)

— patent publication US4734120A, “Dipeptides containing C-terminal phosphinothricin, a process for their preparation and their use for controlling undesirable plant growth” (Hoechst Aktiengesellschaft, priority 1985, dated 1988)
